Literature values in patent US8785427B2, “Enzymatic process for obtaining 17 alpha-monoesters of cortexolone and/or its 9,11-dehydroderivatives” (Cosmo Dermatos Srl, priority 2007, dated 2014).

Conditions: both in vitro and in vivo on the animal; described in EP1421099

In the case of CCCC(=O)O[C@]1(C(=O)CO)CC[C@H]2[C@@H]3CCC4=CC(=O)CC[C@]4(C)C3=CC[C@@]21C [9,11-dehydro-cortexolone-17-α-butanoate, 9,11-Dehydro-Cortexolone-17α-Butanoate], the antiandrogenic biological activity is given as “high antiandrogenic biological activity”.

In the case of CCC(=O)O[C@]1(C(=O)CO)CC[C@H]2[C@@H]3CCC4=CC(=O)CC[C@]4(C)[C@H]3CC[C@@]21C [cortexolone 17α-propionate], the antiandrogenic biological activity is given as “high antiandrogenic biological activity”.
